According to ChEMBL document CHEMBL1201862, “PubChem BioAssay data set” (2004):
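Compound exposure: 48 hours, 5 concentrations, 96-well plates. GI50 is the concentration that inhibits growth by half.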 Calls of active or inactive are those of the source. Cut-off read from the data, not from the text of the source: active = GI50 up to about 1.1 µM and inactive = higher.

What was measured:
Test in all cases: NCI-60 cell line screen, 48 h
[1] = system: A498
[2] = system: CCRF-CEM
[3] = system: EKVX
[4] = system: HCC 2998
[5] = system: HOP-62
[6] = system: HOP-92
[7] = system: HT-29
[8] = system: M14
[9] = system: MOLT-4
[10] = system: NCI-H226
[11] = system: NCI-H23
[12] = system: NCI-H460
[13] = system: NCI-H522
[14] = system: OVCAR-5
[15] = system: SF-268
[16] = system: SF-295
[17] = system: SK-MEL-5
[18] = system: SR
[19] = system: U-251

| SMILES | GI50 [1] | GI50 [2] | GI50 [3] | GI50 [4] | GI50 [5] | GI50 [6] | GI50 [7] | GI50 [8] | GI50 [9] | GI50 [10] | GI50 [11] | GI50 [12] | GI50 [13] | GI50 [14] | GI50 [15] | GI50 [16] | GI50 [17] | GI50 [18] | GI50 [19] |
| --- | --- | --- | --- | --- | --- | --- | --- | --- | --- | --- | --- | --- | --- | --- | --- | --- | --- | --- | --- |
| C[N+](C)(C)CC(=O)N/N=C(/CC1OC(=O)c2ccccc21)c1ccccc1O (configuration not stated) | 38.5 µM (inactive) | 19 µM (inactive) | 62.4 µM (inactive) | 22.4 µM (inactive) | 35.4 µM (inactive) | 29.7 µM (inactive) | 44.1 µM (inactive) | > 100 µM (inactive) | 16.2 µM (inactive) | 20 µM (inactive) | 26.5 µM (inactive) | 24.4 µM (inactive) | 46.5 µM (inactive) | > 100 µM (inactive) | 81.8 µM (inactive) | 42.4 µM (inactive) | 46.6 µM (inactive) | 14.3 µM (inactive) | 22 µM (inactive) |
| CCc1nc(N)nc(N)c1-c1ccc([N+](C)(C)C)cc1 | > 100 µM (inactive) | > 100 µM (inactive) | > 100 µM (inactive) | > 100 µM (inactive) | > 100 µM (inactive) | > 100 µM (inactive) | > 100 µM (inactive) | > 100 µM (inactive) | > 100 µM (inactive) | > 100 µM (inactive) | > 100 µM (inactive) | > 90.2 µM (inactive) | > 100 µM (inactive) | > 100 µM (inactive) | > 100 µM (inactive) | > 100 µM (inactive) | > 100 µM (inactive) | > 100 µM (inactive) | > 100 µM (inactive) |
| O=C(Cc1ccccc1)Nn1c(-c2ccccc2)nc2ccccc2c1=O | 62.7 µM (inactive) | > 100 µM (inactive) | > 100 µM (inactive) | > 100 µM (inactive) | > 100 µM (inactive) | > 100 µM (inactive) | > 100 µM (inactive) | > 100 µM (inactive) | > 100 µM (inactive) | > 100 µM (inactive) | > 100 µM (inactive) | > 100 µM (inactive) | > 100 µM (inactive) | > 100 µM (inactive) | > 100 µM (inactive) | > 100 µM (inactive) | 2.38 µM (inactive) | > 100 µM (inactive) | > 100 µM (inactive) |
| COC1OC(CBr)C(OC(c2ccccc2)(c2ccccc2)c2ccccc2)C(OC(c2ccccc2)(c2ccccc2)c2ccccc2)C1OC(c1ccccc1)(c1ccccc1)c1ccccc1 (configuration not stated) | 78.2 µM (inactive) | > 100 µM (inactive) | 17.5 µM (inactive) | 65.2 µM (inactive) | 25.2 µM (inactive) | 17.1 µM (inactive) | 96.6 µM (inactive) | 51.8 µM (inactive) | > 100 µM (inactive) | 33.4 µM (inactive) | 87.3 µM (inactive) | 46.1 µM (inactive) | 16 µM (inactive) | 41 µM (inactive) | 63.5 µM (inactive) | 42 µM (inactive) | 66.5 µM (inactive) | > 100 µM (inactive) | – |
| CC(=O)OC1C(C)OC(OC(=O)C2CCC3C(C2)OC2(CC(OC(=O)/C=C/c4ccccc4)C(C)CO2)C32CO2)C(OC2OC(C)C(O)C(OC(C)=O)C2O)C1O (configuration not stated) | 0.0205 µM (active) | < 0.01 µM (active) | < 0.01 µM (active) | < 0.01 µM (active) | < 0.012 µM (active) | < 0.01 µM (active) | < 0.01 µM (active) | < 0.01 µM (active) | < 0.01 µM (active) | < 0.01 µM (active) | < 0.01 µM (active) | < 0.01 µM (active) | < 0.01 µM (active) | < 0.01 µM (active) | < 0.01 µM (active) | < 0.01 µM (active) | < 0.01 µM (active) | < 0.01 µM (active) | < 0.01 µM (active) |
| O=C1/C(=N/CCc2cc(Br)c(O)c(Br)c2)C=C(O)c2cccnc21 | 3.08 µM (inactive) | 5.24 µM (inactive) | 8.47 µM (inactive) | 6.78 µM (inactive) | 1.11 µM (active) | 7.94 µM (inactive) | 2.6 µM (inactive) | 1.31 µM (inactive) | 6.75 µM (inactive) | 1.87 µM (inactive) | 0.502 µM (active) | 1.17 µM (inactive) | 1.74 µM (inactive) | 2.03 µM (inactive) | 2.19 µM (inactive) | 1.2 µM (inactive) | 1.24 µM (inactive) | 0.771 µM (active) | 1.93 µM (inactive) |
| O=C(O)c1ccccc1/C=C1/Nc2ccccc2C1=O | > 100 µM (inactive) | 44.9 µM (inactive) | 60 µM (inactive) | > 100 µM (inactive) | > 100 µM (inactive) | > 100 µM (inactive) | 67.9 µM (inactive) | > 100 µM (inactive) | 91.4 µM (inactive) | > 100 µM (inactive) | > 100 µM (inactive) | 32.9 µM (inactive) | – | > 100 µM (inactive) | 93.1 µM (inactive) | > 100 µM (inactive) | – | 66.5 µM (inactive) | > 100 µM (inactive) |
| [N-]=[N+]=Nc1ccc(CNc2cc(=O)[nH]c(=O)[nH]2)cc1 | > 100 µM (inactive) | > 100 µM (inactive) | > 100 µM (inactive) | > 100 µM (inactive) | > 100 µM (inactive) | > 100 µM (inactive) | > 100 µM (inactive) | > 100 µM (inactive) | > 100 µM (inactive) | > 100 µM (inactive) | > 100 µM (inactive) | > 100 µM (inactive) | > 100 µM (inactive) | > 100 µM (inactive) | > 100 µM (inactive) | > 100 µM (inactive) | > 100 µM (inactive) | > 100 µM (inactive) | > 100 µM (inactive) |
| CCOC(=O)c1c(-c2ccc(O)c(OC)c2)c(C#N)c(=S)n(C2OC(CO)C(O)C(O)C2O)c1-c1ccccc1 (configuration not stated) | > 100 µM (inactive) | > 100 µM (inactive) | > 100 µM (inactive) | > 100 µM (inactive) | > 100 µM (inactive) | 66.7 µM (inactive) | > 100 µM (inactive) | > 100 µM (inactive) | 54.3 µM (inactive) | 13 µM (inactive) | > 100 µM (inactive) | > 100 µM (inactive) | – | > 100 µM (inactive) | > 100 µM (inactive) | > 100 µM (inactive) | > 100 µM (inactive) | > 100 µM (inactive) | > 100 µM (inactive) |
| NP(=O)(OCC1=CC(=O)c2ccccc2C1=O)N(CCBr)CCBr (configuration not stated) | 20.8 µM (inactive) | 1.2 µM (inactive) | 15.3 µM (inactive) | 16 µM (inactive) | – | 13.3 µM (inactive) | 11.1 µM (inactive) | 2.01 µM (inactive) | 0.634 µM (active) | 6.58 µM (inactive) | 3.03 µM (inactive) | 1.79 µM (inactive) | 2.31 µM (inactive) | 22.3 µM (inactive) | 11.2 µM (inactive) | 8.81 µM (inactive) | 1.31 µM (inactive) | 0.399 µM (active) | 11.5 µM (inactive) |
| CCNC(=O)Cc1nc2c(N)ncnc2n1C1OC(CO)C(O)C1O (configuration not stated) | > 100 µM (inactive) | > 10 µM (inactive) | > 100 µM (inactive) | 95.7 µM (inactive) | > 100 µM (inactive) | > 100 µM (inactive) | > 100 µM (inactive) | > 100 µM (inactive) | > 100 µM (inactive) | > 100 µM (inactive) | > 100 µM (inactive) | > 100 µM (inactive) | > 100 µM (inactive) | – | > 100 µM (inactive) | > 100 µM (inactive) | > 100 µM (inactive) | > 100 µM (inactive) | > 100 µM (inactive) |
| O=C1CC(c2cccc(Br)c2)n2cccc21 (configuration not stated) | > 100 µM (inactive) | > 100 µM (inactive) | > 100 µM (inactive) | 54.7 µM (inactive) | > 100 µM (inactive) | 81.3 µM (inactive) | 93.1 µM (inactive) | 80.7 µM (inactive) | 40.1 µM (inactive) | 92.9 µM (inactive) | 63.5 µM (inactive) | – | 47.2 µM (inactive) | > 100 µM (inactive) | 67.8 µM (inactive) | > 100 µM (inactive) | – | 51.2 µM (inactive) | > 100 µM (inactive) |
| CN(C)CCC(C(=O)C(C)(C)C)c1ccccn1 (configuration not stated) | > 100 µM (inactive) | > 100 µM (inactive) | > 100 µM (inactive) | > 100 µM (inactive) | > 100 µM (inactive) | > 100 µM (inactive) | > 100 µM (inactive) | > 100 µM (inactive) | – | > 100 µM (inactive) | > 100 µM (inactive) | > 100 µM (inactive) | > 100 µM (inactive) | > 100 µM (inactive) | > 100 µM (inactive) | > 100 µM (inactive) | > 100 µM (inactive) | > 100 µM (inactive) | > 100 µM (inactive) |
| CC(=O)OC1O[C@@H](C(C)(C)O)CC[C@@H]1[C@H]1CC[C@@]2(C)C3=C(CC[C@]12C)[C@@]1(C)C[C@@H](OC(=O)CC(C)(O)CC(=O)O)[C@H](OC(C)=O)C(C)(C)C1CC3 (some centres not stated) | 19.2 µM (inactive) | 20.8 µM (inactive) | 17.5 µM (inactive) | 19 µM (inactive) | 18.8 µM (inactive) | 16.7 µM (inactive) | 20.1 µM (inactive) | 19.5 µM (inactive) | 19.4 µM (inactive) | 21.7 µM (inactive) | 21.2 µM (inactive) | 18 µM (inactive) | – | 18.3 µM (inactive) | – | 17.5 µM (inactive) | 19.2 µM (inactive) | 23.4 µM (inactive) | 16 µM (inactive) |
| CC(=O)c1c2c(cc3c1CC1(C3)Cc3cc4c(c(C(C)=O)c3C1)CCCC4)CCCC2 | > 100 µM (inactive) | 7.19 µM (inactive) | > 100 µM (inactive) | > 100 µM (inactive) | > 100 µM (inactive) | 81.8 µM (inactive) | 63.2 µM (inactive) | > 100 µM (inactive) | 18.4 µM (inactive) | > 100 µM (inactive) | > 100 µM (inactive) | – | 74.6 µM (inactive) | > 100 µM (inactive) | – | > 100 µM (inactive) | 17.4 µM (inactive) | 16.3 µM (inactive) | > 100 µM (inactive) |
